In patent publication US8133884B2, “Compounds for the treatment of hepatitis C” (priority 2008, dated 2012):

What was measured:
HCV NS5B = target: T1, HCV NS5B (Hepatitis C virus genotype 1b, UniProt Q9WMX2); assay: Modified HCV NS5B RdRp enzyme assay (preincubation protocol); type: biochemical
T1 construct: The protein was expressed with an 18 amino acid C-terminal truncation to enhance the solubility; made in house; host or cells: E. coli BL21(DE3)
Procedure: The cDNA encoding the NS5B protein of HCV, genotype 1b, was cloned into the pET21a expression vector. The protein was expressed with an 18 amino acid C-terminal truncation to enhance the solubility. The E. coli competent cell line BL21(DE3) was used for expression of the protein. Cultures were grown at 37° C. for ˜4 hours until the cultures reached an optical density of 2.0 at 600 nm. The cultures were cooled to 20° C. and induced with 1 mM IPTG. Fresh ampicillin was added to a final concentration of 50 μg/ml and the cells were grown overnight at 20° C.
Cell pellets (3 L) were lysed for purification to yield 15-24 mgs of purified NS5B. The lysis buffer consisted of 20 mM Tris-HCl, pH 7.4, 500 mM NaCl, 0.5% triton X-100, 1 mM DTT, 1 mM EDTA, 20% glycerol, 0.5 mg/ml lysozyme, 10 mM MgCl2, 15 ug/ml deoxyribonuclease I, and Complete TM protease inhibitor tablets (Roche). After addition of the lysis buffer, frozen cell pellets were resuspended using a tissue homogenizer. To reduce the viscosity of the sample, aliquots of the lysate were sonicated on ice using a microtip attached to a Branson sonicator. The sonicated lysate was centrifuged at 100,000×g for 1 hr at 4° C. and filtered through a 0.2 μm filter unit (Corning).
The protein was purified using three sequential chromatography steps: Heparin sepharose CL-6B, polyU sepharose 4B, and […] SP sepharose (Pharmacia). The chromatography buffers were identical to the lysis buffer but contained no lysozyme, deoxyribonuclease I, MgCl2 or protease inhibitor and the NaCl concentration of the buffer was adjusted according to the requirements for charging the protein onto the column. Each column was eluted with a NaCl gradient which varied in length from 5-50 column volumes depending on the column type. After the final chromatography step, the resulting purity of the enzyme is >90% based on SDS-PAGE analysis. The enzyme was aliquoted and stored at −80° C.
HCV RdRp genotype 1b assays were run in a final volume of 60 μl in 96 well plates (Costar 3912). The assay buffer is composed of 20 mM Hepes, pH 7.5, 2.5 mM KCl, 2.5 mM MgCl2, 1 mM DTT, 1.6 U RNAse inhibitor (Promega N2515), 0.1 mg/ml BSA (Promega R3961), and 2% glycerol. All compounds were serially diluted (3-fold) in DMSO and diluted further in water such that the final concentration of DMSO in the assay was 2%. HCV RdRp genotype 1b enzyme was used at a final concentration of 28 nM. A polyA template was used at 6 nM, and a biotinylated oligo-dT12 primer was used at 180 nM final concentration. Template was obtained commercially (Amersham 27-4110). Biotinylated primer was prepared by Sigma Genosys. 3H-UTP was used at 0.6 μCi (0.29 μM total UTP). Reactions were initiated by the addition of enzyme, incubated at 30° C. for 60 min, and stopped by adding 25 μl of 50 mM EDTA containing SPA beads (4 μg/μl, Amersham RPNQ 0007). Plates were read on a Packard TOPCOUNT® NXT after >1 hr incubation at room temperature.
A modified enzyme assay was performed essentially as described for the standard enzyme assay except for the following: The biotinylated oligo dT12 primer was precaptured on streptavidin-coated SPA beads by mixing primer and beads in assay buffer and incubating at room temperature for one hour. Unbound primer was removed after centrifugation. The primer-bound beads were resuspended in 20 mM Hepes buffer, pH 7.5 and used in the assay at final concentrations of 20 nM primer and 0.67 μg/μl beads. Order of addition in the assay: enzyme (14 nM) was added to diluted compound followed by the addition of a mixture of template (0.2 nM), 3H-UTP (0.6 μCi, 0.29 μM), and primer-bound beads, to initiate the reaction; concentrations given are final. Reactions were allowed to proceed for 4 hours at 30° C.
IC50 values for compounds were determined using seven different [I]. IC50 values were calculated from the inhibition using the formula y=A+((B−A)/(1+((C/x)^D))).

HCV replicon = HCV replicon assay (FRET or luciferase reporter); type: cell-based; conditions: Hepatitis C virus, one of the methods described
From the text: To perform the HCV FRET screening assay, 96-well cell culture plates were used, The FRET peptide (Anaspec, Inc.) (Taliani et al., Anal. Biochem., 240:60-67 (1996)) contains a fluorescence donor, EDANS, near one end of the peptide and an acceptor, DABCYL, near the other end. The fluorescence of the peptide is quenched by […] resonance energy transfer (RET) between the donor and the acceptor, but as the NS3 protease cleaves the peptide the products are released from RET quenching and the fluorescence of the donor becomes apparent. The assay reagent was made as follows: 5× cell Luciferase cell culture lysis reagent from Promega (#E153A) diluted to 1× with dH2O, NaCl added to 150 mM final, the FRET peptide diluted to 20 μM final from a 2 mM stock.
To prepare plates, HCV replicon cells, with or without a Renilla luciferase reporter gene, were trypsinized and placed into each well of a 96-well plate with titrated test compounds added in columns 3 through 12; columns 1 and 2 contained a control compound (HCV protease inhibitor), and the bottom row contained cells without compound. The plates were then placed in a CO2 incubator at 37° C.
Subsequent to addition of the test compounds described above (FRET Assay Preparation), at various times the plate was removed and Alamar blue solution (Trek Diagnostics, #00-100) was added per well as a measure of cellular toxicity. After reading in a CYTOFLUOR® 4000 instrument (PE Biosystems), plates were rinsed with PBS and then used for FRET assay by the addition of 30 ul of the FRET peptide assay reagent described above (FRET Assay Preparation) per well. The plate was then placed into the CYTOFLUOR® 4000 instrument which had been set to 340 excite/490 emission, automatic mode for 20 cycles and the plate read in a kinetic mode. Typically, the signal to noise using an endpoint analysis after the reads was at least three-fold. Alternatively, after Alamar blue reading, plates were rinsed with PBS, 50 ul of DMEM (high glucose) without phenol red was added and plates were then used for luciferase assay using the Promega DUAL-GLO® Luciferase Assay System.
Compound analysis was determined by quantification of the relative HCV replicon inhibition and the relative cytotoxicity values. To calculate cytoxicity values, the average Alamar Blue fluorescence signals from the control wells were set as 100% non-toxic. The individual signals in each of the compound test wells were then divided by the average control signal and multiplied by 100% to determine […]. To calculate the HCV replicon inhibition values, an average background value was obtained from the two wells containing the highest amount of HCV protease inhibitor at the end of the assay period. These numbers were similar to those obtained from naïve Huh-7 cells.
The background numbers were then subtracted from the average signal obtained from the control wells and this number was used as 100% activity. The individual signals in each of the compound test wells were then divided by the averaged control values after background subtraction and multiplied by 100% to determine percent activity. EC50 values for a protease inhibitor titration were calculated as the concentration which caused a 50% reduction in FRET or luciferase activity. The two numbers generated for the compound plate, percent cytoxicity and percent activity were used to determine compounds of interest for further analysis.
The HCV replicon luciferase assay was developed to monitor the inhibitory effects of compounds described in the disclosure on HCV viral replication. Utilization of a replicon luciferase reporter assay was first described by Krieger et al (Krieger, N. et al., J. Virology, 75(10):4614-4624 (2001)). HUH-7 cells, constitutively expressing the HCV replicon, were grown in Dulbecco's Modified Eagle Media (DMEM) (Gibco-BRL) containing 10% Fetal calf serum (FCS) (Sigma) and 1 mg/ml G418 (Gibco-BRL). […]

T1 sequence (Q9WMX2 2420-2992): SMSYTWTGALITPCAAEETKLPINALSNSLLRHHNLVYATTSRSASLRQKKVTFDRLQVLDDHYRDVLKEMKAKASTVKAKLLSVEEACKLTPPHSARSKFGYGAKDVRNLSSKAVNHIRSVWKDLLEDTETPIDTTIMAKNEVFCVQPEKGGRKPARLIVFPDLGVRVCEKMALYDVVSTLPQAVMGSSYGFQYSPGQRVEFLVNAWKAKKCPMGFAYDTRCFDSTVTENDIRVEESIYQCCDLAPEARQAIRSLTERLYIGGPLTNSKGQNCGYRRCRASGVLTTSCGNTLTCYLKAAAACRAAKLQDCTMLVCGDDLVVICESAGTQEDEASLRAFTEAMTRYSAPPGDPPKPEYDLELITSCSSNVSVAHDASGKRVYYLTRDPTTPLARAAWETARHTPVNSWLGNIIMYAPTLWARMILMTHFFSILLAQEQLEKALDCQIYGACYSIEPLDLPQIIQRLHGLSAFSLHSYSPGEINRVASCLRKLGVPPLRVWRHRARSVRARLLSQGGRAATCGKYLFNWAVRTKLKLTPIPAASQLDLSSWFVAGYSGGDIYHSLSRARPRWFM

COc1ccc2c(c1)C=C(c1c(C(=O)N3C4CCC3CN(C)C4)cnn1C1CCOCC1)Cn1c-2c(C2CCCCC2)c2ccc(C(=O)NS(=O)(=O)CC(C)C)cc21
IC50 (HCV NS5B; class symbol): 1.7 to 500 nM | EC50 (HCV replicon; class symbol): 1.7 to 500 nM

COc1ccc2c(c1)C=C(c1c(C(=O)N3C[C@@H](C)N(C)[C@@H](C)C3)cnn1C1CCOCC1)Cn1c-2c(C2CCCCC2)c2ccc(C(=O)NS(=O)(=O)CC(C)C)cc21
IC50 (HCV NS5B; class symbol): 1.7 to 500 nM | EC50 (HCV replicon; class symbol): 1.7 to 500 nM

CCN1C[C@@H]2C[C@H]1CN2C(=O)c1cnn(C2CCOCC2)c1C1=Cc2cc(OC)ccc2-c2c(C3CCCCC3)c3ccc(C(=O)NS(=O)(=O)CC(C)C)cc3n2C1
IC50 (HCV NS5B; class symbol): 1.7 to 500 nM | EC50 (HCV replicon; class symbol): 1.7 to 500 nM

COc1ccc2c(c1)C=C(c1c(C(=O)N3CC4CCC(C3)N4C)cnn1C1CCOCC1)Cn1c-2c(C2CCCCC2)c2ccc(C(=O)NS(=O)(=O)CC(C)C)cc21
IC50 (HCV NS5B; class symbol): 1.7 to 500 nM | EC50 (HCV replicon; class symbol): 1.7 to 500 nM

COc1ccc2c(c1)C=C(c1c(C(=O)N3C[C@@H](C)O[C@@H](C)C3)cnn1-c1ccncc1C)Cn1c-2c(C2CCCCC2)c2ccc(C(=O)NS(=O)(=O)C3CC3)cc21
IC50 (HCV NS5B; class symbol): 1.7 to 500 nM | EC50 (HCV replicon; class symbol): 1.7 to 500 nM

COc1ccc2c(c1)C=C(c1c(C(=O)N3C[C@@H](C)O[C@@H](C)C3)cnn1-c1ccccc1)Cn1c-2c(C2CCCCC2)c2ccc(C(=O)NS(=O)(=O)C(C)C)cc21
IC50 (HCV NS5B; class symbol): 1.7 to 500 nM | EC50 (HCV replicon; class symbol): 1.7 to 500 nM

COc1ccc2c(c1)C=C(c1c(C(=O)N3C[C@@H](C)O[C@@H](C)C3)cnn1-c1ccccn1)Cn1c-2c(C2CCCCC2)c2ccc(C(=O)NS(=O)(=O)C(C)C)cc21
IC50 (HCV NS5B; class symbol): 1.7 to 500 nM | EC50 (HCV replicon; class symbol): 1.7 to 500 nM

COc1ccc2c(c1)C=C(c1c(C(=O)N3C[C@@H](C)O[C@@H](C)C3)cnn1C1CCCC1)Cn1c-2c(C2CCCCC2)c2ccc(C(=O)NS(=O)(=O)C(C)C)cc21
IC50 (HCV NS5B; class symbol): 1.7 to 500 nM | EC50 (HCV replicon; class symbol): 1.7 to 500 nM

COc1ccc2c(c1)C=C(c1c(C(=O)N3C[C@@H](C)O[C@@H](C)C3)cnn1-c1ncccn1)Cn1c-2c(C2CCCCC2)c2ccc(C(=O)NS(=O)(=O)C(C)C)cc21
IC50 (HCV NS5B; class symbol): 1.7 to 500 nM | EC50 (HCV replicon; class symbol): 1.7 to 500 nM

COc1ccc2c(c1)C=C(c1c(C(=O)N3C[C@@H](C)O[C@@H](C)C3)cnn1-c1cc[nH]c(=O)c1)Cn1c-2c(C2CCCCC2)c2ccc(C(=O)NS(=O)(=O)C(C)C)cc21
IC50 (HCV NS5B; class symbol): 1.7 to 500 nM | IC50 (HCV NS5B; exact value): 8.9 nM | EC50 (HCV replicon; class symbol): > 1000 nM | EC50 (HCV replicon; exact value): > 1000 nM

COc1ccc2c(c1)C=C(c1c(C(=O)N3C[C@@H](C)O[C@@H](C)C3)cnn1-c1ccncc1)Cn1c-2c(C2CCCCC2)c2ccc(C(=O)NS(=O)(=O)C(C)C)cc21
IC50 (HCV NS5B; class symbol): 1.7 to 500 nM | EC50 (HCV replicon; class symbol): 1.7 to 500 nM

COc1ccc2c(c1)C=C(c1c(C(=O)N3C[C@@H](C)O[C@@H](C)C3)cnn1-c1ccnc(C)c1)Cn1c-2c(C2CCCCC2)c2ccc(C(=O)NS(=O)(=O)C(C)C)cc21
IC50 (HCV NS5B; class symbol): 1.7 to 500 nM | EC50 (HCV replicon; class symbol): 1.7 to 500 nM

COc1ccc2c(c1)C=C(c1c(C(=O)N3C[C@@H](C)O[C@@H](C)C3)cnn1-c1cccnc1)Cn1c-2c(C2CCCCC2)c2ccc(C(=O)NS(=O)(=O)C(C)C)cc21
IC50 (HCV NS5B; class symbol): 1.7 to 500 nM | EC50 (HCV replicon; class symbol): 1.7 to 500 nM

COc1ccc2c(c1)C=C(c1c(C(=O)N3C[C@@H](C)O[C@@H](C)C3)cnn1-c1nc3ccccc3[nH]1)Cn1c-2c(C2CCCCC2)c2ccc(C(=O)NS(=O)(=O)C(C)C)cc21
IC50 (HCV NS5B; class symbol): 1.7 to 500 nM | IC50 (HCV NS5B; exact value): 9 nM | EC50 (HCV replicon; class symbol): 1.7 to 500 nM | EC50 (HCV replicon; exact value): 150 nM

COc1ccc2c(c1)C=C(c1c(C(=O)N3C[C@@H](C)O[C@@H](C)C3)cnn1-c1cnccn1)Cn1c-2c(C2CCCCC2)c2ccc(C(=O)NS(=O)(=O)C(C)C)cc21
IC50 (HCV NS5B; class symbol): 1.7 to 500 nM | EC50 (HCV replicon; class symbol): 1.7 to 500 nM

COc1ccc2c(c1)C=C(c1c(C(=O)N3CCOCC3)noc1C1CC1)Cn1c-2c(C2CCCCC2)c2ccc(C(=O)NS(=O)(=O)N(C)C)cc21
IC50 (HCV NS5B; class symbol): 1.7 to 500 nM | EC50 (HCV replicon; class symbol): 1.7 to 500 nM

COc1ccc2c(c1)C=C(c1c(C(=O)N3C[C@@H](C)O[C@@H](C)C3)noc1C1CC1)Cn1c-2c(C2CCCCC2)c2ccc(C(=O)NS(=O)(=O)N(C)C)cc21
IC50 (HCV NS5B; class symbol): 1.7 to 500 nM | EC50 (HCV replicon; class symbol): 1.7 to 500 nM

COC[C@@H]1CN(C(=O)c2cnn(C3CCC3)c2C2=Cc3cc(OC)ccc3-c3c(C4CCCCC4)c4ccc(C(=O)NS(=O)(=O)C(C)C)cc4n3C2)CCO1
IC50 (HCV NS5B; class symbol): 1.7 to 500 nM | EC50 (HCV replicon; class symbol): 1.7 to 500 nM

COc1ccc2c(c1)C=C(c1c(C(=O)N3CC4CCC(C3)O4)cnn1C1CCC1)Cn1c-2c(C2CCCCC2)c2ccc(C(=O)NS(=O)(=O)C(C)C)cc21
IC50 (HCV NS5B; class symbol): 1.7 to 500 nM | IC50 (HCV NS5B; exact value): 3.9 nM | EC50 (HCV replicon; class symbol): 1.7 to 500 nM | EC50 (HCV replicon; exact value): 10 nM
